Laboratory results taken from patent US20080260653A1, “Transdermal Delivery Systems and Transdermal Chelation Preparations” (priority 2004, published 2008).

Experiment: Thermal stability and activity test of chelators (copper oxide removal test)
Type: physicochemical
Details: 143 degrees F. for 5 minutes
Procedure: A fresh copper surface is prepared. The surface is gently heat oxidized. Next, the chelation quality was determined. About 0.0001 grams per drop (or 0.0029 g/ml) chelator effectively removed all the oxide form 1 cm sq in two minutes at a temperature of 98-99 degrees F. Then, the solution was diluted at 10% intervals to determine the point where it would not remove the oxide. There was a step wise decrease in chelation effect across the Cu test sample plate. A standard of chelation was graphed, see FIGS. 1 and 2.
A similar test is used for thermal stability and activity. […] Also, the identical test is used to determine batch activity. A crude field test is to put the chelator on a penny and heat to 98 degrees.

| SMILES | inactive (loss of chelator activity on heating) |
| --- | --- |
| O=S(=O)([O-])CC(S)CS.[Na+] (centres unmarked) [DMPS, 2,3-dimercaptopropanesulphonate sodium] | 100% |
| O=C(O)CN(CCN(CC(=O)O)CC(=O)O)CC(=O)O [EDTA, ethylenediamine-N,N,N′,N′-tetraacetic acid] | 100% |
